Laboratory results published in patent US20090054376A1, “BENZOFURAN DERIVATIVES WITH THERAPEUTIC ACTIVITIES” (Pharmos Corporation, priority 2005, published 2009).

Columns and labels:
Human CB1 Receptor = target: T1, Human CB1 Receptor (Homo sapiens, UniProt P21554); experiment: [35S]GTPγS-binding assay, hCB1; assay type: biochemical; conditions: NB = no binding
T1 construct: expressed in transfected cells; host or cells: HEK-293 cells (membranes)

Human CB2 Receptor = target: T2, Human CB2 Receptor (Homo sapiens, UniProt P34972); experiment: [35S]GTPγS-binding assay, hCB2; assay type: biochemical; conditions: GTPγS, Human CB2 Receptor, NB = no binding
T2 construct: host or cells: Sf9 or HEK-293 cells (membranes)
T2 sequence (P34972 whole entry): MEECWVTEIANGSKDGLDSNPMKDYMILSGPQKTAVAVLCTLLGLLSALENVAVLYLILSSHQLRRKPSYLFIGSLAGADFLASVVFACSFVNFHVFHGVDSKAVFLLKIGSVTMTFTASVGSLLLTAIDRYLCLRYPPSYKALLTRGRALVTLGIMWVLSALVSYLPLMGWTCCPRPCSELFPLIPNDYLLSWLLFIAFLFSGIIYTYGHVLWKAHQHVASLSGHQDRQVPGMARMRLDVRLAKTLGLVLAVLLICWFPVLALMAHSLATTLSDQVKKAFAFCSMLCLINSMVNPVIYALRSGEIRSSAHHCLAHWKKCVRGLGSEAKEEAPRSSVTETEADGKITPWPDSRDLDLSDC

[1] = test system: PLP induced remitting-relapsing EAE; experiment: PLP induced remitting-relapsing EAE; assay type: in vivo, SJL female mice; conditions: for average clinical score on the first peak of the disease: vehicle 3.63±0.25; for average clinical score at the second peak of the disease (first relapse): vehicle 3.14±0.48; for reduction in average clinical score at peak as compared to vehicle: first peak; for AUC of clinical score: over 23 days, vehicle 54.13±9.58; for reduction in average clinical score as compared to vehicle: second peak

T1 sequence (P21554 whole entry): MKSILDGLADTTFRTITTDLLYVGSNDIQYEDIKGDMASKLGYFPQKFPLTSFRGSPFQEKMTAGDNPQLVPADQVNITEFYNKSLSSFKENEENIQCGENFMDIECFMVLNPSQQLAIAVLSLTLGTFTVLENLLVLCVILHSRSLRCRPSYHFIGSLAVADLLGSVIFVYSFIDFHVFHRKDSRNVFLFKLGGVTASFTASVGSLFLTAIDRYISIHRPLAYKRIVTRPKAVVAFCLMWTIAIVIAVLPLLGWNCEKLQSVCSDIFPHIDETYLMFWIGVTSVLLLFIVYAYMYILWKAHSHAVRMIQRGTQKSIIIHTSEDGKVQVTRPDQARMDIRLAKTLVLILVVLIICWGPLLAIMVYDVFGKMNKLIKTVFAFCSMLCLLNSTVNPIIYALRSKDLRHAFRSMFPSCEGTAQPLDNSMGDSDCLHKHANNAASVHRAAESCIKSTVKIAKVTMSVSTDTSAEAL

For `CCCCCCC(C)(C)c1cc(O)c2c(c1)OC1C(O)CCCCC21` (stereo not drawn) [Compound C7S-2, 2-(1,1-dimethylheptyl)-5,6,7,8,9,9a-hexahydro-4bH-10-oxa-benzo[α]azulen-4,9-diol], the EC50 (Human CB1 Receptor) was 0.359 µM, the Emax (Human CB1 Receptor; upper plateau of curve) was 50% and the EC50 (Human CB2 Receptor) was 0.227 µM. For the same molecule, the Emax (Human CB2 Receptor; upper plateau of curve) was 26%, the “average clinical score on the first peak of the disease” value ([1]; 5 mg/kg p.o. daily for 10 days) was 2.78±0.15 and the “average clinical score at the second peak of the disease (first relapse)” value ([1]; 5 mg/kg p.o.) was 1.25±0.41. For the same molecule, the “average clinical score on the first peak of the disease” value ([1]; 10 mg/kg i.p. daily for 10 days) was 2.43±0.26, the “average clinical score at the second peak of the disease (first relapse)” value ([1]; 10 mg/kg i.p.) was 0.57±0.11 and the “reduction in average clinical score at peak as compared to vehicle” value ([1]; 5 mg/kg p.o.) was 23%. The “reduction in average clinical score at peak as compared to vehicle” value ([1]; 10 mg/kg i.p.) was 33%, the “reduction of overall severity of the disease (expressed in AUC)” value ([1]; i.p.) was 64% and the “AUC of clinical score” value ([1]; 5 mg/kg p.o.) was 28.13±5.74. The “AUC of clinical score” value ([1]; 10 mg/kg i.p.) was 19.43±2.51, the “reduction of overall severity of the disease (expressed in AUC)” value ([1]; p.o.) was 48% and the “reduction in average clinical score as compared to vehicle” value ([1]; i.p.) was 82%. The “reduction in average clinical score as compared to vehicle” value ([1]; p.o.) was 60%.
